US8598202B2, “Aryl-hydroxyethylamino-pyrimidines and triazines as modulators of fatty acid amide hydrolase” (Janssen Pharmaceutica NV, priority 2008, dated 2013)
Structures can show the parent of a compound that is named as a salt. Where two headings read alike, the source gives them in different places.

Legend:
[1] = biological target: T1, FAAH (Homo sapiens, UniProt O00519); experiment: Assay Method 1: FAAH assay, 3H-anandamide hydrolysis in homogenate of T84 cells or SK-N-MC cells transfected with human FAAH
T1 sequence (O00519 1-579): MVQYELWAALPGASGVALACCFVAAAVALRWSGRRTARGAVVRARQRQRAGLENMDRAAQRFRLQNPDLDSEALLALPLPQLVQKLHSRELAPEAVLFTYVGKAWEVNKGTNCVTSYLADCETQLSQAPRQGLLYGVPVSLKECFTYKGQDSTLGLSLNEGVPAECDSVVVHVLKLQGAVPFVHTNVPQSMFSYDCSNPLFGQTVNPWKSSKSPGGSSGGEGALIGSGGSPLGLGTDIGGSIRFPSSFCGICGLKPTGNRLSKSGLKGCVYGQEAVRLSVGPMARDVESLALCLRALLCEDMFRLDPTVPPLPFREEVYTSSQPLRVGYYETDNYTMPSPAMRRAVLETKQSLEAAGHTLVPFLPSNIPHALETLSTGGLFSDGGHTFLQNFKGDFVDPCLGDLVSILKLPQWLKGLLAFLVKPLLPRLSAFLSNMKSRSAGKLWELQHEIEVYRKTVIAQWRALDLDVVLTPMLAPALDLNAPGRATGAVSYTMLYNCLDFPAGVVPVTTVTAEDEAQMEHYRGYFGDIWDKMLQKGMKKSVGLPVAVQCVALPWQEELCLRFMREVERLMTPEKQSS

[2] = biological target: T2, Rat FAAH-1 (Rattus norvegicus, UniProt P97612); experiment: Assay Method 2: rat FAAH-1 assay, 3H-anandamide hydrolysis in homogenate of SK-N-MC cells transfected with rat FAAH
T2 sequence (P97612 1-579): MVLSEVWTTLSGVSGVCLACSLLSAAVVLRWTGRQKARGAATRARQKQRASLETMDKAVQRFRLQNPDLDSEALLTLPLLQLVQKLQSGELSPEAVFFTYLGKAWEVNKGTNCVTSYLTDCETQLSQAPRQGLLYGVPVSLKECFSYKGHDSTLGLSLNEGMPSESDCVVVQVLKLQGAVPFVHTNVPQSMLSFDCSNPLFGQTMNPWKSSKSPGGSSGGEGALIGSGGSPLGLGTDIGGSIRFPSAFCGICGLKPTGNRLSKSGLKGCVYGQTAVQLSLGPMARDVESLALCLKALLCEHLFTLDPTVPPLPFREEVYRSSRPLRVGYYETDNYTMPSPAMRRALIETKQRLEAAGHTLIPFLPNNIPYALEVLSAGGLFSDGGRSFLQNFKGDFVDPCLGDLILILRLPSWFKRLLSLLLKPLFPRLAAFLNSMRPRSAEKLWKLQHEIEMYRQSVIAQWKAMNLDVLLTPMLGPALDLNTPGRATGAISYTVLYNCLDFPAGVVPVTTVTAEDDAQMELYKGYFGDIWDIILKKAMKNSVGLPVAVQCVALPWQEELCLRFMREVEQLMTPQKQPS

SMILES	IC50 ([1]; read-out: Assay 1 IC50, Table 2, Comparative Examples, human FAAH) [nM]	IC50 ([2]; read-out: Assay 2 IC50, Table 2, Comparative Examples, rat FAAH-1) [nM]	IC50 [1] [nM]	IC50 [2] [nM]
CC(=O)Nc1cccc(-c2cc(NCC(O)c3ccccc3)ncn2)c1 (centres unmarked) [CE2, N-{3-[6-(2-Hydroxy-2-phenyl-ethylamino)-pyrimidin-4-yl]-phenyl}-acetamide, reference compound]	> 10000	> 10000		
OC(CNc1cc(-c2ccc(C(F)(F)F)c(Cl)c2)ncn1)c1cccc(C(F)(F)F)c1 (centres unmarked) [Example 135, 2-({6-[3-Chloro-4-(trifluoromethyl)phenyl]pyrimidin-4-yl}amino)-1-[3-(trifluoromethyl)phenyl]ethanol trifluoroacetic acid salt]			100	16
CC(O)c1ccc(-c2cc(NC[C@H](O)c3ccccc3)ncn2)cc1F (stereo partly drawn) [Example 129, (1R)-2-({6-[3-Fluoro-4-(1-hydroxyethyl)phenyl]pyrimidin-4-yl}amino)-1-phenylethanol trifluoroacetic acid salt]			16	120
O=C(c1ccccc1)c1ccc(-c2cc(NC[C@H](O)c3ccccc3)ncn2)cc1 [Example 57, [4-(6-{[(2R)-2-Hydroxy-2-phenylethyl]amino}pyrimidin-4-yl)phenyl](phenyl)methanone trifluoroacetic acid salt]			29	535
CC(C)Oc1ccc(-c2cc(NC[C@H](O)c3ccccc3)ncn2)cc1F [Example 36, (1R)-2-({6-[3-Fluoro-4-(1-methylethoxy)phenyl]pyrimidin-4-yl}amino)-1-phenylethanol trifluoroacetic acid salt]			8	20
OC(CNc1cc(-c2ccsc2)ncn1)c1ccccc1 (centres unmarked) [Example 245, 1-Phenyl-2-(6-thiophen-3-yl-pyrimidin-4-ylamino)-ethanol]			> 10000	> 10000
OC(CNc1cc(-c2cc(C(F)(F)F)cc(C(F)(F)F)c2)ncn1)c1ccccc1 (centres unmarked) [Example 239, 2-[6-(3,5-Bis-trifluoromethyl-phenyl)-pyrimidin-4-ylamino]-1-phenyl-ethanol]			> 10000	> 10000
N#Cc1ccc(-c2cc(NCC(O)c3ccccc3)ncn2)cc1 (centres unmarked) [Example 226, 4-{6-[(2-Hydroxy-2-phenylethyl)amino]pyrimidin-4-yl}benzonitrile]			341	663
O[C@@H](CNc1cc(-c2ccc(C(F)(F)F)c(Cl)c2)ncn1)c1ccc(Cl)c(F)c1 [Example 146, (1R)-1-(4-Chloro-3-fluoro-phenyl)-2-[6-(3-chloro-4-trifluoromethyl-Phenyl)-pyrimidin-4-ylamino]-ethanol]			26	4
OC(CNc1cc(-c2ccc(C(F)(F)F)c(Cl)c2)ncn1)c1nccs1 (centres unmarked) [Example 169, 2-({6-[3-Chloro-4-(trifluoromethyl)phenyl]pyrimidin-4-yl}amino)-1-(1,3-thiazol-2-yl)ethanol]			6000	8000
OC(CNc1cc(-c2ccc(C(F)(F)F)c(Cl)c2)ncn1)c1csc2ccccc12 (centres unmarked) [Example 201, 1-(1-benzothiophen-3-yl)-2-({6-[3-chloro-4-(trifluoromethyl)phenyl]pyrimidin-4-yl}amino)ethanol]			170	170
C[C@H](Nc1cc(-c2ccc(OC(F)(F)F)cc2)ncn1)[C@H](O)c1ccccc1 [Example 119, (1R,2S)-1-Phenyl-2-[(6-{4-[(trifluoromethyl)oxy]phenyl}pyrimidin-4-yl)amino]propan-1-ol]			17	55
OC(CNc1cc(-c2ccc(C(F)(F)F)c(Cl)c2)ncn1)c1ccc(-c2cccs2)cc1 (centres unmarked) [Example 194, 2-({6-[3-Chloro-4-(trifluoromethyl)phenyl]pyrimidin-4-yl}amino)-1-(4-thiophen-2-ylphenyl)ethanol]			11	210
OC(CNc1cc(-c2ccc(OC(F)(F)F)cc2)ncn1)c1cccnc1 (centres unmarked) [Example 124, 1-Pyridin-3-yl-2-[(6-{4-[(trifluoromethyl)oxy]phenyl}pyrimidin-4-yl)amino]ethanol]			800	4000
O[C@@H](CNc1cc(-c2ccc(Cl)c(Cl)c2)nc(C2CC2)n1)c1ccccc1 [Example 136, (1R)-2-{[2-Cyclopropyl-6-(3,4-dichlorophenyl)pyrimidin-4-yl]amino}-1-phenylethanol]			84	340
CC(C)(C)c1ccc(-c2cc(NCC(O)c3ccccc3)ncn2)cc1 (centres unmarked) [Example 224, 2-({6-[4-(1,1-Dimethylethyl)phenyl]pyrimidin-4-yl}amino)-1-phenylethanol]			28	538
Oc1ccc(-c2cc(NCC(O)c3ccccc3)ncn2)cc1 (centres unmarked) [Example 238, 4-[6-(2-Hydroxy-2-phenyl-ethylamino)-pyrimidin-4-yl]-phenol]			7000	> 10000
CN(C)CCNc1nc(NC[C@H](O)c2ccccc2)cc(-c2ccc(C(F)(F)F)c(Cl)c2)n1 [Example 158, (1R)-2-[(6-[3-Chloro-4-(trifluoromethyl)phenyl]-2-{[2-(dimethylamino)ethyl]amino}pyrimidin-4-yl)amino]-1-phenylethanol trifluoroacetic acid salt]			3460	110
OC(CNc1cc(-c2cc3ccccc3s2)ncn1)c1ccccc1 (centres unmarked) [Example 227, 2-(6-Benzo[b]thiophen-2-yl-pyrimidin-4-ylamino)-1-phenyl-ethanol]			33	216
O[C@@H](CNc1cc(-c2cc3cc(OC(F)(F)F)ccc3s2)ncn1)c1ccccc1 [Example 185, (1R)-1-Phenyl-2-({6-[5-(trifluoromethoxy)-1-benzothiophen-2-yl]pyrimidin-4-yl}amino)ethanol trifluoroacetic acid salt]			20	90
O[C@@H](CNc1cc(-c2ccc3c(C(F)(F)C(F)(F)F)noc3c2)ncn1)c1ccccc1 [Example 188, (1R)-2-({6-[3-(pentafluoroethyl)-1,2-benzisoxazol-6-yl]pyrimidin-4-yl}amino)-1-phenylethanol trifluoroacetic acid salt]			24	35
OC(CNc1cc(-c2ccc(C(F)(F)F)c(Cl)c2)ncn1)c1cccc(SC(F)(F)F)c1 (centres unmarked) [Example 198, 2-({6-[3-chloro-4-(trifluoromethyl)phenyl]pyrimidin-4-yl}amino)-1-[3-[(trifluoromethyl)sulfanyl]phenyl]ethanol]			92	25
O=S(=O)(c1ccc(-c2cc(NC[C@H](O)c3ccccc3)ncn2)cc1)N1CCSCC1 [Example 172, (1R)-1-Phenyl-2-({6-[4-(thiomorpholin-4-ylsulfonyl)phenyl]pyrimidin-4-yl}amino)ethanol]			8000	1500
CC(C)(C#N)c1ccc(-c2cc(NC[C@H](O)c3ccccc3)ncn2)cc1 [Example 50, 2-[4-(6-{[(2R)-2-Hydroxy-2-phenylethyl]amino}pyrimidin-4-yl)phenyl]-2-methylpropanenitrile trifluoroacetic acid salt]			92	985
CC(C)c1nc(NC[C@H](O)c2ccccc2)cc(-c2ccc(Cl)c(Cl)c2)n1 [Example 137, (1R)-2-{[6-(3,4-Dichlorophenyl)-2-(1-methylethyl)pyrimidin-4-yl]amino}-1-phenylethanol]			920	5000
OC(CNc1cc(-c2ccc(OC(F)(F)F)cc2)ncn1)c1ccc(C(F)(F)F)cc1 (centres unmarked) [Example 108, 2-[(6-{4-[(Trifluoromethyl)oxy]phenyl}pyrimidin-4-yl)amino]-1-[4-(trifluoromethyl)phenyl]ethanol]			110	150
O[C@@H](CNc1cc(-c2ccc3nonc3c2)ncn1)c1ccccc1 [Example 45, (1R)-2-{[6-(2,1,3-Benzoxadiazol-5-yl)pyrimidin-4-yl]amino}-1-Phenylethanol trifluoroacetic acid salt]			150	600
N#Cc1cc(-c2cc(NC[C@H](O)c3ccccc3)ncn2)ccc1F [Example 89, 2-Fluoro-5-(6-{[(2R)-2-hydroxy-2-phenylethyl]amino}pyrimidin-4-yl)benzonitrile trifluoroacetic acid salt]			1600	1400
